Experimental data published in patent EP4768499A1, “MACROCYCLIC PEPTIDE COMPOUND HAVING CELL MEMBRANE PERMEABILITY AND METABOLIC STABILITY, AND LIBRARY CONTAINING SAME” (Chugai Seiyaku Kabushiki Kaisha, priority 2023, dated 2025).
Starred links: 1 amine or outer side, 2 acyl side, 3 side chain; linkers in the order of their positions; H or OH if unused. Positions of bridges follow the written chain, without caps; N, C: chain ends. Non-standard residues stand in square brackets, D forms with d. Residues, ends and D or L forms follow the SMILES beside them. *: point of attachment. NMeF = CN[C@@H](Cc1ccccc1)C(=O)O; NMeGABA = CN(CCCC(=O)[*:2])[*:1]; hPhe = N[C@@H](CCc1ccccc1)C(=O)O; NMeβAla = CN(CCC(=O)[*:2])[*:1]; NMeL = CN[C@@H](CC(C)C)C(=O)O; dNMeV = CN[C@@H](C(=O)O)C(C)C; NMeV = CN[C@H](C(=O)O)C(C)C; d(β3hA) = C[C@@H](N)CC(=O)O; NMeAbu = CC[C@H](NC)C(=O)O; NMeA = CN[C@@H](C)C(=O)O; Piperidide = C1CCN(*)CC1; dNMeA = CN[C@H](C)C(=O)O; Abu = CC[C@H](N)C(=O)O; NBuGly = CCCCNCC(=O)O; Sar = CNCC(=O)O; tBu = CC(C)(C)*

Experiments:
Caco-2 cells = assay: Membrane permeability test using Caco-2 cells with preincubation; assay type: in vitro ADME; conditions: Caco-2 cells, preincubation 20 to 24 hours; apical FaSSIF/HBSS 1% DMSO pH 6.0, basal HBSS 4% BSA pH 7.4; basal sample at 180 minutes
Protocol: (§1) The permeability coefficient (Caco-2 Papp (cm/sec)) is calculated using a numerical expression 1. [Expression 1] Papp = (1)/(C1 (0) × S) × (dQ)/(dt) [formula] dQ/dt represents the permeation rate of drug (the amount of drug appearing on the Basal side per unit time), S represents the total surface area of cells, and C1(0) represents the concentration of drug added on the Apical side.
(§2) Using a mixed medium of FaSSIF containing 1% DMSO and DMEM as the apical medium, and DMEM as the basal medium, Caco-2 cells and peptide compounds are preincubated for 20 to 24 hours under conditions of 5% CO2, 37°C, and 80 rpm. Afterward, the culture medium on the Apical side and the Basal side are aspirated and washed, the peptide compound was added to a FaSSIF/HBSS buffer solution containing 1% DMSO (1% DMSO) (pH 6.0) at the Apical side, a HBSS buffer solution containing 4% BSA (pH 7.4) was added to the Basal side, and measurement of membrane permeability is started. Each well is shaken under 5% CO2 at 37°C and 80 rpm, and at 180 minutes after the start of shaking, a sample on the Basal side is collected. The amount of peptide compounds in the sample was measured using LCMS, and the membrane permeability coefficient was calculated from the permeation amount (Table 7). When calculating the membrane permeability coefficient (Papp) from the permeation amount, the following expression can be used. Papp = (dQ)/(dt) × (1)/(C1 (0) × S) [formula]
(§3) dQ/dt represents the permeation rate of drug (the amount of drug appearing on the Basal side per unit time), C1(0) represents the concentration of drug added on the Apical side, and S represents the total surface area of cells.

[1] = as above; assay type: in vitro ADME; conditions: Caco-2; preincubation 20 to 24 hours; Apical FaSSIF/HBSS pH 6.0, Basal HBSS 4% BSA pH 7.4; 180 minutes; read-out: Caco2 Papp
Protocol: as §1, §2, §3

[2] = Metabolic stability test: liver microsomal stability assay; assay type: in vitro ADME, mouse; conditions: mouse liver microsomes 0.5 mg protein/mL, compound 1 µM; for microsomal CLint at 1 µM: male, pH 7.4, presence of NADPH, read-out: Mouse Hepatic Microsome CLh,int NADPH(+); for Mouse Hepatic Microsome CLh,int NADPH(-): absence of NADPH
Protocol: Under the presence and absence of NADPH, a microsome solution prepared to a concentration of 0.5 mg protein/mL using 100 mM phosphate buffer (pH 7.4) with mouse liver microsomes (male, Corning Incorporated, USA) and the compound at a concentration of 1 µM were subjected to a metabolic reaction for 22 minutes, 44 minutes, or 66 minutes. Protein removal processing was performed over time using acetonitrile, and the remaining amount of unchanged compound was analyzed using LCMS to calculate the intrinsic hepatic clearance (CLh, int) (Table 6).

SMILES | Caco2 Papp (10^-6 cm/sec) (Caco-2 cells) | Papp A→B [1] [×10⁻⁶ cm/s] | microsomal CLint at 1 µM [2] [µL/min/mg] | Mouse Hepatic Microsome CLh,int NADPH(-) [2] [µL/min/mg Protein]
CC[C@@H]1NC(=O)[C@H](CC(C)C)N(C)C(=O)[C@H]([C@@H](C)CC)NC(=O)CN(C)C(=O)C[C@@H](C)NC(=O)[C@H](C(C)C)N(C)C(=O)[C@H](COC(C)(C)C)NC(=O)[C@H](CC(C)C)N(C)C(=O)[C@H](Cc2ccccc2)N(C)C(=O)[C@H](C)NC(=O)[C@H](C(C)C)NC(=O)CN(C)C(=O)[C@H]([C@@H](C)O)NC(=O)[C@H](CC(C)C)N(C)C1=O [pd011] (cyclo(A[NMeF][NMeL]S(tBu)[NMeV][d(β3hA)][Sar]I[NMeL][Abu][NMeL]T[Sar]V)) | 0.11 10^-6 cm/sec | 0.11 | 27.3 | 22.9
CC[C@@H]1NC(=O)[C@H](Cc2ccccc2)N(C)C(=O)[C@H](COC(C)(C)C)NC(=O)[C@H](CC(C)C)N(C)C(=O)[C@H](C)N(C)C(=O)[C@@H]2CCCN2C(=O)[C@H]([C@@H](C)O)NC(=O)[C@H](CC(C)C)N(C)C(=O)[C@H]([C@@H](C)CC)NC(=O)[C@H](Cc2ccccc2)N(C)C(=O)[C@H](C(C)C)NC(=O)[C@@H](C)N(C)C(=O)C[C@@H](C)NC(=O)[C@H](C(C)C)N(C)C1=O [pd012] (cyclo([Abu][NMeV][d(β3hA)][dNMeA]V[NMeF]I[NMeL]TP[NMeA][NMeL]S(tBu)[NMeF])) | 4.30 10^-6 cm/sec | 4.3 | 41.3 | 20.1
CC[C@@H]1NC(=O)[C@H](Cc2ccccc2)N(C)C(=O)[C@H](C(C)C)NC(=O)[C@H](COC(C)(C)C)NC(=O)[C@H](C)N(C)C(=O)CN(C)C(=O)[C@H](CC(C)C)NC(=O)[C@@H]2CCCN2C(=O)[C@H](C(C)C)N(C)C(=O)[C@H](C)NC(=O)[C@H](CC)N(C)C(=O)[C@@H](C(C)C)NC(=O)C[C@@H](C(=O)N2CCCCC2)NC(=O)[C@H](C(C)C)N(C)C1=O [pd013] ([dV][NMeAbu]A[NMeV]PL[Sar][NMeA]S(tBu)V[NMeF][Abu][NMeV]D-Piperidide; lactam N-14) | 0.04 10^-6 cm/sec | 0.04 | 12.1 | 6.1
CC(C)C[C@@H]1NC(=O)[C@@H]2CCCN2C(=O)[C@H](C(C)C)N(C)C(=O)[C@H](C)NC(=O)[C@H](CC(C)C)N(C)C(=O)[C@@H](C(C)C)NC(=O)C[C@@H](C(=O)N2CCCCC2)NC(=O)[C@H](C(C)C)N(C)C(=O)[C@H](C)NC(=O)[C@H](CC(C)C)N(C)C(=O)[C@H](C(C)C)NC(=O)[C@H](COC(C)(C)C)NC(=O)[C@H](CC(C)C)N(C)C(=O)[C@H](Cc2ccccc2)N(C)C1=O [pd014] ([dV][NMeL]A[NMeV]PL[NMeF][NMeL]S(tBu)V[NMeL]A[NMeV]D-Piperidide; lactam N-14) | <0.11 10^-6 cm/sec | < 0.11 | 31.1 | 33.0
CC[C@H](C)[C@@H]1NC(=O)[C@H](C)NC(=O)[C@H](CC(C)C)N(C)C(=O)[C@H](COC(C)(C)C)NC(=O)[C@H](CC(C)C)N(C)C(=O)[C@@H]2CCCN2C(=O)[C@H](Cc2ccccc2)NC(=O)CCN(C)C(=O)[C@H](CC(C)C)N(C)C(=O)CCCN(C)C(=O)C[C@@H](C(=O)N2CCCCC2)NC(=O)[C@H](Cc2ccccc2)N(C)C(=O)[C@H](CC(C)C)NC(=O)[C@H](CC)N(C)C1=O [pd017] ([NMeGABA][NMeL][NMeβAla]FP[NMeL]S(tBu)[NMeL]AI[NMeAbu]L[NMeF]D-Piperidide; lactam N-14) | 0.09 10^-6 cm/sec | 0.09 | 39.4 | 40.1
CCCCN1CC(=O)N(C)[C@@H](CC)C(=O)N[C@@H](CC(C)C)C(=O)N[C@H](C(=O)N2CCCCC2)CC(=O)N(C)[C@@H](C)C(=O)N[C@@H]([C@@H](C)CC)C(=O)N(C)[C@@H](Cc2ccccc2)C(=O)N(C)[C@@H](CC(C)C)C(=O)N[C@@H](C(C)C)C(=O)N(C)CC(=O)N[C@@H](CC(C)C)C(=O)N(C)[C@@H](Cc2ccccc2)C(=O)N(C)[C@@H](C)C(=O)N[C@@H](CC(C)C)C1=O [pd018] ([NMeA]I[NMeF][NMeL]V[Sar]L[NMeF][NMeA]L[NBuGly][NMeAbu]LD-Piperidide; lactam N-14) | 0.11 10^-6 cm/sec | 0.11 | 42.3 | 34.1
CCCCN1CC(=O)N[C@@H](C)C(=O)N(C)[C@@H](Cc2ccccc2)C(=O)N[C@@H](CC(C)C)C(=O)N[C@@H](C)C(=O)N(C)[C@@H](C(C)C)C(=O)N[C@H](C(=O)N2CCCCC2)CC(=O)N[C@H](C(C)C)C(=O)N(C)[C@@H](Cc2ccccc2)C(=O)N[C@@H](CC)C(=O)N(C)[C@@H](C(C)C)C(=O)N(C)CCC(=O)N[C@@H]([C@@H](C)O)C(=O)N(C)[C@@H](CC(C)C)C1=O [pd019] ([dV][NMeF][Abu][NMeV][NMeβAla]T[NMeL][NBuGly]A[NMeF]LA[NMeV]D-Piperidide; lactam N-14) | <0.11 10^-6 cm/sec | < 0.11 | 34.7 | 24.9

More lines, now with the values ahead:

Caco2 Papp (10^-6 cm/sec) (Caco-2 cells) | Papp A→B [1] [×10⁻⁶ cm/s] | microsomal CLint at 1 µM [2] [µL/min/mg] | Mouse Hepatic Microsome CLh,int NADPH(-) [2] [µL/min/mg Protein] | SMILES
<0.11 10^-6 cm/sec | < 0.11 | 33.3 | 24.9 | CC[C@H]1C(=O)N[C@@H](C(C)C)C(=O)N[C@H](C(=O)N2CCCCC2)CC(=O)N(C)[C@H](C(C)C)C(=O)N(C)[C@@H](Cc2ccccc2)C(=O)N[C@@H](CC(C)C)C(=O)N(C)CC(=O)N[C@@H](CC(C)C)C(=O)N[C@@H]([C@@H](C)O)C(=O)N(C)[C@@H](CC(C)C)C(=O)N(C)[C@@H](C(C)C)C(=O)N[C@@H](C)C(=O)N[C@@H](COC(C)(C)C)C(=O)N(C)[C@@H](Cc2ccccc2)C(=O)N1C [pd020] ([dNMeV][NMeF]L[Sar]LT[NMeL][NMeV]AS(tBu)[NMeF][NMeAbu]VD-Piperidide; lactam N-14)
0.15 10^-6 cm/sec | 0.15 | 37.1 | 36.3 | CC[C@@H]1NC(=O)[C@H](Cc2ccccc2)N(C)C(=O)[C@H]([C@@H](C)CC)NC(=O)[C@H](CC(C)C)N(C)C(=O)[C@H](CC(C)C)NC(=O)CCN(C)C(=O)C[C@@H](C(=O)N2CCCCC2)NC(=O)[C@H](C(C)C)NC(=O)[C@H](CC(C)C)N(C)C(=O)[C@H](C)N(C)C(=O)[C@H]([C@@H](C)O)NC(=O)[C@H](CC(C)C)N(C)C(=O)[C@H](COC(C)(C)C)NC(=O)[C@H](Cc2ccccc2)N(C)C1=O [pd021] ([NMeβAla]L[NMeL]I[NMeF][Abu][NMeF]S(tBu)[NMeL]T[NMeA][NMeL]VD-Piperidide; lactam N-14)
0.15 10^-6 cm/sec | 0.15 | 44.4 | 36.4 | CC[C@H](C)[C@@H]1NC(=O)[C@H](COC(C)(C)C)NC(=O)[C@H]([C@@H](C)O)NC(=O)[C@H](Cc2ccccc2)N(C)C(=O)[C@H](C)N(C)C(=O)[C@H](CC(C)C)N(C)C(=O)[C@H](CCc2ccccc2)NC(=O)[C@@H]2CCCN2C(=O)[C@H]([C@@H](C)CC)NC(=O)[C@H](CC(C)C)N(C)C(=O)[C@H](C)NC(=O)CCCN(C)C(=O)C[C@@H](C(=O)N2CCCCC2)NC(=O)[C@H](CC(C)C)N(C)C1=O [pd022] ([NMeGABA]A[NMeL]IP[hPhe][NMeL][NMeA][NMeF]TS(tBu)I[NMeL]D-Piperidide; lactam N-14)
0.03 10^-6 cm/sec | 0.03 | 43.3 | 26.2 | CC[C@@H]1NC(=O)[C@H](CC(C)C)N(C)C(=O)[C@H](C)NC(=O)[C@@H]2CCCN2C(=O)[C@H]([C@@H](C)CC)NC(=O)[C@H](CC(C)C)N(C)C(=O)[C@H](CCc2ccccc2)NC(=O)CCCN(C)C(=O)C[C@@H](C(=O)N2CCCCC2)NC(=O)[C@H](CC(C)C)N(C)C(=O)[C@H]([C@@H](C)CC)NC(=O)[C@H](C)N(C)C(=O)[C@H]([C@@H](C)O)NC(=O)[C@H](Cc2ccccc2)N(C)C1=O [pd023] ([NMeGABA][hPhe][NMeL]IPA[NMeL][Abu][NMeF]T[NMeA]I[NMeL]D-Piperidide; lactam N-14)
